Results taken from ChEMBL document CHEMBL5579870, “Integrating Neuroprotective and Anti-inflammatory Strategies in the Development of PI3K Inhibitors for Enhanced Cancer Therapy” (ACS Med Chem Lett, 2024).

Experiments:
[1] = Cytotoxicity against human SK-BR-3 cells expressing wild type PI3Kalpha assessed as inhibition of cell proliferation measured after 72 hrs by CellTiter-Glo reagent based assay; format: toxicity
T47D = test: Antiproliferative activity against human T47D cells expressing PI3Kalpha H1047R mutant assessed as inhibition of cell proliferation measured after 72 hrs by CellTiter-Glo reagent based assay; format: functional
[2] = AUC(last) in CD-1 mouse at 10 mg/kg, po by LC/MS/MS analysis; format: ADME, organism-based; details: in vivo
[3] = Oral bioavailability in CD-1 mouse at 10 mg/kg by LC/MS/MS analysis; format: ADME, organism-based; details: in vivo

SMILES | EC50 (T47D) [µM] | AUC(0-t) [2] [ng·h/mL] | bioavailability [3] [%] | EC50 at 72 h [1] [µM]
Cc1cc(C(C)Nc2ccc(Cl)cc2C(=O)O)c2nc(N3Cc4ccc(F)cc4C3)n(C)c(=O)c2c1 (stereo not drawn) | 0.001 |  |  | 2
Cc1cc(C(C)Nc2ccccc2C(=O)O)c2nc(N3Cc4ccc(C#N)cc4C3)n(C)c(=O)c2c1 (stereo not drawn) | 0.001 |  |  | > 15
CC(Nc1ccc(F)cc1C(=O)O)c1cc(F)cc2c(=O)n(C)c(N3CCN(CC(F)(F)F)CC3)nc12 (stereo not drawn) | 0.001 |  |  | > 15
Cc1cc(C(C)Nc2ccc(F)cc2C(=O)O)c2nc(N3CCC(C)(C)CC3)n(C)c(=O)c2c1 (stereo not drawn) | 0.001 | 10700 | 61 | 2

The remaining compounds from weak to strong by EC50 (T47D), led by results:

EC50 (T47D) [µM] | AUC(0-t) [2] [ng·h/mL] | bioavailability [3] [%] | SMILES | EC50 at 72 h [1] [µM]
0.5 |  |  | Cc1cc(C(C)Nc2ccccc2C(=O)O)c2nc(N3CC[Si](C)(C)CC3)n(C)c(=O)c2c1 (stereo not drawn) | 2
0.5 |  |  | CC(Nc1ccccc1C(=O)O)c1cc(Cl)cc2c(=O)n(C)c(N3CCN(CC(F)(F)F)CC3)nc12 (stereo not drawn) | > 15
0.5 |  |  | CC(Nc1ccccc1C(=O)O)c1cc(C(F)(F)F)cc2c(=O)n(C)c(N3CCN(CC(F)(F)F)CC3)nc12 (stereo not drawn) | 2
0.001 |  |  | Cc1cc(C(C)Nc2ccc(F)cc2C(=O)O)c2nc(N3CCN(CC(F)(F)F)CC3)n(C)c(=O)c2c1 (stereo not drawn) | 2
